The IC50 is the concentration at which inhibition is half-maximal. Higher therefore signals a need for much substance. Usually Ki stands for a measure of affinity in units of concentration, obtained from inhibition or displacement. Read a low Ki as tighter binding. One may read the inhibition as the relative decrease from the control value, in per cent.

Calls of active or inactive are those of the source. The rule behind the calls is not given here. Some results are limits rather than exact numbers.

Data set [1] has as its target T1, Cholinesterase (Equus caballus, UniProt P81908). Description: Inhibition of equine serum BuChE using butyrylthiocholine iodide as substrate preincubated for 10 mins followed by substrate addition measured for 5 mins by Ellman's method. For orientation: Ellman's reagent forms a yellow product with free thiols.
Data set [2] deals with Acetylcholinesterase (Electrophorus electricus, UniProt O42275). The experiment in a line: Inhibition of electric eel AChE using acetylthiocholine iodide as substrate preincubated for 10 mins followed by substrate addition measured for 5 mins by Ellman's method.
Data set [3] in a line: Selectivity index, ratio of IC50 for electric eel AChE to IC50 for equine serum BuChE.
The subject of data set [4] is Rattus norvegicus. The experiment in a line: Reversal of scopolamine-induced memory impairment in albino Wistar rat assessed as decrease in mean training period traveled distance to find platform at 10 mg/kg, ip by Morris water maze test. It counts as functional, organism-based.
Data set [5] deals with T1, Cholinesterase. Description: Mixed-type inhibition of equine serum BuChE using varying levels of butyrylthiocholine iodide as substrate preincubated for 10 mins followed by substrate addition measured for 5 mins by Lineweaver-Burk plot analysis.
Data set [6] has as its target Cholinesterase (Equus caballus) (UniProt P81908). Description: Potency index, ratio of galantamine IC50 to compound IC50 for inhibition of equine serum BuChE.
Data set [7] has the same target. The experiment in a line: Potency index, ratio of donepezile IC50 to compound IC50 for inhibition of equine serum BuChE.
Data set [8] concerns Rattus norvegicus. Description: Reversal of scopolamine-induced memory impairment in albino Wistar rat assessed as effect on swimming speed at 5 to 20 mg/kg, ip by Morris water maze test. In kind it is functional, organism-based.
For data set [9], the system named is Rattus norvegicus. Description: Reversal of scopolamine-induced memory impairment in albino Wistar rat assessed as increase in time spent in target quadrant in probe day at 10 mg/kg, ip by Morris water maze test. In kind it is functional, organism-based.
Data set [10] has as its target Amyloid-beta precursor protein (Homo sapiens) (UniProt P05067). Description: Inhibition of HFIP-pretreated amyloid beta (1 to 42) (unknown origin) self-induced aggregation at 10 uM after 48 hrs by thioflavin-T fluorescence assay relative to control.
The subject of data set [11] is PC-12. Description: Neuroprotection against H2O2-induced cell death in rat PC12 cells assessed as cell viability at 10 uM preincubated for 3 hrs followed by H2O2 addition measured after 12 hrs by MTT assay relative to control. As to conditions: read-out: Activity. In kind it is functional.
Data set [12] relates to PC-12. The experiment in a line: Neuroprotection against H2O2-induced cell death in rat PC12 cells assessed as increase in cell viability at 1 uM preincubated for 3 hrs followed by H2O2 addition measured after 12 hrs by MTT assay. It counts as functional, cell-based.
Data set [13] concerns Rattus norvegicus. The experiment in a line: Reversal of scopolamine-induced memory impairment in albino Wistar rat assessed as decrease in mean training period scape latency at 10 mg/kg, ip by Morris water maze test. In kind it is functional, organism-based.
For data set [14], the system named is PC-12. Description: Cytotoxicity against rat PC12 cells assessed as reduction in cell viability at 100 uM by MTT assay. In kind it is cell-based. As to conditions: pc-12, 100 µM. For orientation: Tetrazolium dyes change colour on reduction, which living cells bring about.
The subject of data set [15] is Rattus norvegicus. Description: Reversal of scopolamine-induced memory impairment in albino Wistar rat assessed as effect on swimming speed at 2.5 mg/kg, ip by Morris water maze test. In kind it is functional, organism-based.
For data set [16], the system named is Rattus norvegicus. The experiment in a line: Reversal of scopolamine-induced memory impairment in albino Wistar rat assessed as increase in time spent in target quadrant in probe day at 2.5 mg/kg, ip by Morris water maze test. It counts as functional, organism-based.
Data set [17] relates to Rattus norvegicus. The experiment in a line: Reversal of scopolamine-induced memory impairment in albino Wistar rat assessed as decrease in mean training period traveled distance to find platform at 2.5 mg/kg, ip by Morris water maze test. It counts as functional, organism-based.

T1 sequence (P81908 whole entry): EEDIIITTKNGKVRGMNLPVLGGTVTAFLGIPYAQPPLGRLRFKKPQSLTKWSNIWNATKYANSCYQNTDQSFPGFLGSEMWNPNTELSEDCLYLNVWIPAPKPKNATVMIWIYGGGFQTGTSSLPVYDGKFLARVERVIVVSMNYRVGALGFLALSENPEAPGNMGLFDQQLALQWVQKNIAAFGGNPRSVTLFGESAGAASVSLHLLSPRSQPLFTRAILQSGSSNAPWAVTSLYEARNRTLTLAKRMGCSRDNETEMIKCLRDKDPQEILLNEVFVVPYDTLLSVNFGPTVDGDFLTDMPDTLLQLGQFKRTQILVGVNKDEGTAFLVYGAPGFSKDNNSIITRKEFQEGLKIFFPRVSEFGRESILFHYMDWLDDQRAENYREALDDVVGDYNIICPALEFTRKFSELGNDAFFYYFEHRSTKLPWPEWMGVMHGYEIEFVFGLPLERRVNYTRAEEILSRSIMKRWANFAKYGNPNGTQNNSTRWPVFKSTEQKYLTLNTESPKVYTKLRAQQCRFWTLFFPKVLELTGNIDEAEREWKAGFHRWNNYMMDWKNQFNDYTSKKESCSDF
Sequence of Acetylcholinesterase (O42275 whole entry): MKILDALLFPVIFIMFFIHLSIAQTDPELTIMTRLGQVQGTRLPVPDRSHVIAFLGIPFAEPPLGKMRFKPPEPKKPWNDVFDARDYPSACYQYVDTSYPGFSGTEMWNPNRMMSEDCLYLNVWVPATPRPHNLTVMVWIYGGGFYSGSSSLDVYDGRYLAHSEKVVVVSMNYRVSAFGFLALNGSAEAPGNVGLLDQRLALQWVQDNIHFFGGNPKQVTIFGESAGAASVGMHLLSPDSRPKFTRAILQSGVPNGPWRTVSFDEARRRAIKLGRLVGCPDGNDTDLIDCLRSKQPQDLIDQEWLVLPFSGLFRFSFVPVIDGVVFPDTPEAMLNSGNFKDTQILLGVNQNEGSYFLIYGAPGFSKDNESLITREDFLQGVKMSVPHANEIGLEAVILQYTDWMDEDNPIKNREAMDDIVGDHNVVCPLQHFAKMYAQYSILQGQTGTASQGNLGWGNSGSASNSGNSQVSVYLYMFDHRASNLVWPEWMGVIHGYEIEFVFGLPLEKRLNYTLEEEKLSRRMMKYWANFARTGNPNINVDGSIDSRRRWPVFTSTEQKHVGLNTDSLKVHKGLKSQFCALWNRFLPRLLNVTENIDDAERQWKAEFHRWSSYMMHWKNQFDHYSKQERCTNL
Sequence of Cholinesterase (Equus caballus) (P81908 whole entry): as the sequence (P81908 whole entry) above
Sequence of Amyloid-beta precursor protein (Homo sapiens) (P05067 whole entry): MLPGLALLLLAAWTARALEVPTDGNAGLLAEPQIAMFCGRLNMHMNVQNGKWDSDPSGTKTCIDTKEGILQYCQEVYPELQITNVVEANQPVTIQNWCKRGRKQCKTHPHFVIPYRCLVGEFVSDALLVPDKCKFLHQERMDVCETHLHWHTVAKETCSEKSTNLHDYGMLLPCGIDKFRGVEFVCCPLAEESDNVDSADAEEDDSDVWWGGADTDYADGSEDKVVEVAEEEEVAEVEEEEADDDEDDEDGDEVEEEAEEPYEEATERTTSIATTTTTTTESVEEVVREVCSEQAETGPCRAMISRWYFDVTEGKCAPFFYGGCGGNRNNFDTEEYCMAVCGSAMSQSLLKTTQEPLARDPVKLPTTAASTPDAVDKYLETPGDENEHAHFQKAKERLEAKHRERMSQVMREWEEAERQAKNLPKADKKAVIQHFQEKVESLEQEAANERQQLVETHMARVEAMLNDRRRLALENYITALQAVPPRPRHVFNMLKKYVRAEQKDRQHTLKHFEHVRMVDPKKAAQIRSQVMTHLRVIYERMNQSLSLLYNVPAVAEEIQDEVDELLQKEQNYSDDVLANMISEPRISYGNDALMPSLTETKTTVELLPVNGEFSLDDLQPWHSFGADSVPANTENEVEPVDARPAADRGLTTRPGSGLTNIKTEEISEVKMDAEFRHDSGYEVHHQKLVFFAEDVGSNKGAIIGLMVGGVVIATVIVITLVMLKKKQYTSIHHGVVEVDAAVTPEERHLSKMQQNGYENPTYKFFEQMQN

Turning to `Clc1ccccc1C[n+]1cccc(Cn2c3ccccc3c3ccccc32)c1`, the 50% inhibitory concentration (IC50) in data set [1] was 0.38 µM; in data set [2], above 100 µM. Besides, the Ratio IC50 in data set [3] was above 263.

As to `Fc1ccccc1C[n+]1ccc(Cn2c3ccccc3c3ccccc32)cc1`, the half-maximal inhibitory concentration (IC50) in [1] was determined as 0.67 µM; in data set [2] it was 12.7 µM. Moreover, the Ratio IC50 in data set [3] is 18.9.

In the case of `Clc1cccc(C[n+]2cccc(Cn3c4ccccc4c4ccccc43)c2)c1`, the IC50 in data set [1] was 0.16 µM; in [2], 32.8 µM. Also, the Ratio IC50 in [3] was 205.

As to `Cc1cccc(C[n+]2cccc(Cn3c4ccccc4c4ccccc43)c2)c1`, the concentration for half-maximal inhibition (IC50) in data set [1] was found to be 0.28 µM; in data set [2], 66 µM. Further, in data set [3], the Ratio IC50 was found to be 236.

Regarding `Clc1ccc(C[n+]2cccc(Cn3c4ccccc4c4ccccc43)c2)cc1.[Cl-]`, the outcome in data set [4], in [9] and in data set [13] was Active. The compound further gave an inhibition constant (Ki) in [5] of 0.09 µM. Also, the Ratio IC50 in data set [6] is 129; in data set [7], 4.8; in data set [3], 274. In addition, the result in data set [8] and in [12] was inactive. For the same compound, the inhibition in data set [10] is 49.9%. The viability at 10 µM in data set [11] was 66%. The IC50 came out at 0.073 µM in data set [1] and 20 µM in data set [2]. In addition, in data set [14], the Activity result was “Toxic”.

`COc1cc2c(cc1OC)C(=O)C(CC1CCN(Cc3ccccc3)CC1)C2` (stereo not given): the outcome in data set [15] was inactive. Also, the result in data set [16] and in data set [17] was Active.

On to `Clc1ccc(C[n+]2ccc(Cn3c4ccccc4c4ccccc43)cc2)cc1`, for which the concentration for half-maximal inhibition (IC50) in [1] came to 1.6 µM; in [2], 19 µM. Moreover, the Ratio IC50 in data set [3] was found to be 11.9.

Turning to `c1ccc(C[n+]2cccc(Cn3c4ccccc4c4ccccc43)c2)cc1`, the IC50 came out at 0.27 µM in data set [1] and 61.9 µM in [2]. In addition, the Ratio IC50 in [3] amounted to 229.

Regarding `Clc1cccc(C[n+]2ccc(Cn3c4ccccc4c4ccccc43)cc2)c1`, the figures for the IC50 in data set [1] and in [2] were 0.35 µM and 9.3 µM, respectively. In addition, the Ratio IC50 in [3] is 26.6.

With `Clc1ccccc1C[n+]1ccc(Cn2c3ccccc3c3ccccc32)cc1`, the values for the half-inhibitory concentration (IC50) in data set [1] and in [2] were 0.59 µM and 6.8 µM, respectively. Moreover, the Ratio IC50 in [3] was determined as 11.5.

For `Nc1c2c(nc3ccccc13)CCCC2`, in data set [10], the inhibition was 7.7%.

As for `Fc1ccccc1C[n+]1cccc(Cn2c3ccccc3c3ccccc32)c1`, the values for the IC50 in data set [1] and in data set [2] were 0.37 µM and above 100 µM, respectively. The Ratio IC50 in data set [3] was above 270.

Turning to `Fc1ccc(C[n+]2cccc(Cn3c4ccccc4c4ccccc43)c2)cc1`, the values for the half-maximal inhibitory concentration (IC50) in data set [1] and in data set [2] were 0.13 µM and 29.4 µM, respectively. The Ratio IC50 in data set [3] amounted to 225.

For `Fc1cccc(C[n+]2ccc(Cn3c4ccccc4c4ccccc43)cc2)c1`, the half-maximal inhibitory concentration (IC50) in [1] is 1.1 µM; in data set [2], 21.3 µM. Moreover, the Ratio IC50 in data set [3] worked out at 19.3.

Consider `Cc1ccccc1C[n+]1cccc(Cn2c3ccccc3c3ccccc32)c1`, for which the IC50 in [1] is 0.22 µM; in data set [2] it was 52.5 µM. In addition, the Ratio IC50 in [3] came to 239.

For `Fc1ccc(C[n+]2ccc(Cn3c4ccccc4c4ccccc43)cc2)cc1`, the half-inhibitory concentration (IC50) in [1] turned out to be 0.89 µM; in data set [2], 18.8 µM. Moreover, the Ratio IC50 in data set [3] was 21.1.

Turning to `Fc1cccc(C[n+]2cccc(Cn3c4ccccc4c4ccccc43)c2)c1`, the IC50 in data set [1] is 0.75 µM; in [2] it was above 100 µM. Besides, the Ratio IC50 in data set [3] is above 133.

Consider `Cc1ccc(C[n+]2cccc(Cn3c4ccccc4c4ccccc43)c2)cc1`, for which the IC50 stood at 0.11 µM in data set [1] and 23.1 µM in data set [2]. Further, the Ratio IC50 in data set [3] stood at 210.

As to `Cc1ccccc1C[n+]1ccc(Cn2c3ccccc3c3ccccc32)cc1`, the concentration for half-maximal inhibition (IC50) in [1] turned out to be 0.35 µM; in data set [2], 11.9 µM. Further, the Ratio IC50 in [3] was 34.

On to `c1ccc(C[n+]2ccc(Cn3c4ccccc4c4ccccc43)cc2)cc1`, for which the half-inhibitory concentration (IC50) in data set [1] worked out at 0.58 µM; in data set [2] it was 12.8 µM. The Ratio IC50 in data set [3] was found to be 22.1.

In the case of `Cc1cccc(C[n+]2ccc(Cn3c4ccccc4c4ccccc43)cc2)c1`, the concentration for half-maximal inhibition (IC50) came out at 0.73 µM in data set [1] and 17.5 µM in [2]. Also, the Ratio IC50 in data set [3] was 24.

Consider `Cc1ccc(C[n+]2ccc(Cn3c4ccccc4c4ccccc43)cc2)cc1`, for which the concentration for half-maximal inhibition (IC50) stood at 0.81 µM in data set [1] and 15.6 µM in [2]. In addition, the Ratio IC50 in data set [3] turned out to be 19.3.
